Results: patent publication US11058673B2, “Dosage regimen of MDM2 inhibitor for treating cancers” (DAIICHI SANKYO COMPANY, LIMITED, priority 2015, dated 2021)
Read-outs that look alike come from different tables or passages of the source.

How the values were obtained:
Liposarcoma = assay: Phase 1 clinical study: progression free survival, liposarcoma subjects; assay type: in vivo, human; conditions: Liposarcoma (N = 13)
Method: (§1) • 1. Has a histologically or cytologically documented advanced solid tumor or lymphoma that has relapsed from or is refractory to standard treatment, or for which no standard treatment is available. • 2. Man or woman≥18 years old. • 3. Has an Eastern Cooperative Oncology Group (ECOG) performance status 0-1. • 4. Has adequate bone marrow function, adequate renal function, adequate hepatic function, and adequate blood clotting function.
(§2) Tumor assessment Tumor assessment was performed at baseline, within every 2 cycles while the subject remained on study for the first 9 cycles and then every 3 cycles thereafter (start of Cycles 3, 5, 7, and 9, then Cycles 12, 15, etc.).
(§3) Tumor Response Response assessment was performed according to the Schedule of Events or if disease progression was suspected. Radiographic assessment included computerized tomography (CT) of all affected sites. In addition, subjects with lymphoma underwent a (^18F) fluorodeoxyglucose-positron emission tomography FDG-PET scan. Tumor responses were assessed by the physicians according to RECIST 1.1 criteria for subjects with solid tumors and revised IWG criteria for subjects with lymphoma. Descriptive statistics for the greatest percent change in the sum of longest dimensions (SLD) of measurable tumors were provided. A waterfall plot of the greatest percent change from screening in the SLD for each subject was presented for subjects with advanced solid malignancies and lymphomas. In addition, descriptive statistics for FDG-PET scans were provided for lymphoma subjects according to revised IWG criteria.

Non-Liposarcoma = assay: Phase 1 clinical study: progression free survival, non-liposarcoma subjects; assay type: in vivo, human; conditions: Non-Liposarcoma (N = 14)
Method: as §1, §2, §3

[1] = assay type: in vivo, human; conditions: for maximum tolerated dose (MTD): oral
Method: (§4) Dosage regimen Compound 2 was administered as an oral capsule comprising a pharmaceutically acceptable carrier (diluting agent, plasticizer, disintegrator and lubricant). Compound 2 was administered to the subjects once daily on Days 1 to 21 of a 28-day cycle (QD21/28). An alternative drug administration schedule was considered after establishing the maximum tolerated dose (MTD) of Compound 2 in solid tumor and/or lymphoma subjects using the above schedule, and upon review of the human safety. Subjects were administered Compound 2 in fasting conditions by avoiding food for 2 hours before and 1 hour after drug administration. Dose-escalation of Compound 2 to determine the MTD was guided by the modified continuous reassessment method (mCRM) using a Bayesian logistic regression model (BLRM) following escalation with overdose control (EWOC) principle. Dose escalation began in subjects with advanced solid tumors or lymphomas with a starting dose of Compound 2 at 15 mg/day based on the Highest Non-Severely Toxic Dose (HNSTD) of 3 mg/kg in dogs.
Dose Limiting Toxicity Definition A DLT was defined as any treatment-emergent adverse event (TEAE) not attributable to disease or disease-related processes that occurred during the observation period (Cycle 1) in each dose-level cohort and was grade 3 or higher according to NCI CTCAE, version 4. Subjects who were unable to complete at least 75% of the prescribed doses (i.e., 16 days) of Compound 2 in the first 21 days as a result of nondisease-related≥grade 2 adverse event (AE) were considered to have a DLT.
Treatment Arms In this open-label, single-arm, dose escalation study, each subject received Compound 2 orally once daily on Days 1 to 21 of a 28-day cycle.
Safety Parameters The safety profile was based on AEs, physical examination findings, vital sign measurements, clinical laboratory measurements, and ECG recordings. All subjects receiving at least 1 dose of Compound 2 were included in the safety analyses.

[2] = Highest Non-Severely Toxic Dose in dogs; assay type: in vivo
Method: as §4

[3] = tested on: advanced solid tumor or lymphoma; assay: Phase 1 clinical study: tumor response (RECIST v1.1) and progression free survival, overall population; assay type: in vivo, human
Method: as §1, §2, §3

[4] = Overall (N = 27), Kaplan-Meier estimate

Compound: CC1(C)CCC2(CC1)N[C@@H](C(=O)N[C@@H]1CC[C@@H](C(N)=O)OC1)[C@H](c1ccnc(Cl)c1F)[C@]21C(=O)Nc2cc(Cl)ccc21.Cc1ccc(S(=O)(=O)O)cc1 [Compound 2, (3′R,4′S,5′R)—N-[(3R,6S)-6-carbamoyltetrahydro-2H-pyran-3-yl]-6″-chloro-4′-(2-chloro-3-fluoropyridin-4-yl)-4,4-dimethyl-2″-oxo-1″,2″-dihydrodispiro[cyclohexane-1,2′-pyrrolidine-3′,3″-indole]-5′-carboxamide mono(4-methylbenzenesulfonate) monohydrate]
- Subjects without Events (Censored) (%) (Liposarcoma): (76.9) %
- Rate (%) of Being Alive Without Progresion at Least 3 months (Liposarcoma; Kaplan-Meier estimate): 91.7%
- Rate (%) of Being Alive Without Progresion at Least 6 months (Liposarcoma; Kaplan-Meier estimate): 76.4%
- Rate (%) of Being Alive Without Progresion at Least 9 months (Liposarcoma; Kaplan-Meier estimate): 57.3%
- Rate (%) of Being Alive Without Progresion at Least 12 months (Liposarcoma; Kaplan-Meier estimate): 57.3%
- Subjects with Events (%) (Liposarcoma; PFS events): (23.1) %
- Subjects without Events (Censored) (%) (Non-Liposarcoma): (35.7) %
- Progression-Free Survival, Median (Non-Liposarcoma; Kaplan-Meier estimate): 4.04 months
- Rate (%) of Being Alive Without Progresion at Least 3 months (Non-Liposarcoma; Kaplan-Meier estimate): 58.4%
- Rate (%) of Being Alive Without Progresion at Least 6 months (Non-Liposarcoma; Kaplan-Meier estimate): 23.4%
- Rate (%) of Being Alive Without Progresion at Least 9 months (Non-Liposarcoma; Kaplan-Meier estimate): 11.7%
- Rate (%) of Being Alive Without Progresion at Least 12 months (Non-Liposarcoma; Kaplan-Meier estimate): 11.7%
- Subjects with Events (%) (Non-Liposarcoma; PFS events): (64.3) %
- TEAE anemia ([1]; human, in vivo): 38.2%
- TEAE constipation ([1]; human, in vivo): 23.5
- TEAE decreased appetite ([1]; human, in vivo): 50.0%
- TEAE diarrhea ([1]; human, in vivo): 35.3%
- TEAE dysgeusia ([1]; human, in vivo): 20.6%
- TEAE dyspnoea ([1]; human, in vivo): 26.5%
- TEAE fatigue ([1]; human, in vivo): 52.9%
- TEAE grade 3 or higher in severity ([1]; human, in vivo): 55.9%
- TEAE hyperglycemia ([1]; human, in vivo): 29.4%
- TEAE hypoalbuminemia ([1]; human, in vivo): 32.4%
- TEAE nausea ([1]; human, in vivo): 64.7%
- TEAE neutropenia ([1]; human, in vivo): 17.6%
- TEAE peripheral edema ([1]; human, in vivo): 17.6%
- TEAE thrombocytopenia ([1]; human, in vivo): 32.4%
- TEAE vomiting ([1]; human, in vivo): 35.3%
- Treatment emergent adverse events (TEAE) of any grade at any treatment cycle irrespective of causality ([1]; human, in vivo): 97.1%
- most common drug-related TEAEs ([1]; human, in vivo): hematological (thrombocytopenia, anemia, neutropenia), gastrointestinal (nausea, vomiting and diarrhea), and fatigue
- total subjects who experienced DLTs ([1]; human, in vivo): 6 subjects
- maximum tolerated dose (MTD) ([1]; QD 21/28 schedule): 120 mg
- maximum tolerated dose (MTD) ([1]; QD 28/28 schedule): 90 mg
- dose tolerated ([1]; patients with hematological malignancies): 160 mg
- Highest Non-Severely Toxic Dose (HNSTD) [2]: 3 mg/kg
- Subjects without Events (Censored) (%) ([3]; Overall (N = 27)): (55.6) %
- Progression-Free Survival, Median [3, 4]: 5.72 months
- Rate (%) of Being Alive Without Progresion at Least 3 months [3, 4]: 74.5%
- Rate (%) of Being Alive Without Progresion at Least 6 months [3, 4]: 47.4%
- Rate (%) of Being Alive Without Progresion at Least 9 months [3, 4]: 29.7%
- Rate (%) of Being Alive Without Progresion at Least 12 months [3, 4]: 29.7%
- Subjects with Events (%) ([3]; PFS events, Overall (N = 27)): (44.4) %
- subjects with stable disease (SD) as the best tumor response ([3]; RECIST v1.1, out of 23 evaluable subjects): 21 subjects
- subjects with >10% tumor shrinkage ([3]; of 23 evaluable subjects): 3 subjects
